Laboratory results published in the NIST ThermoML archive (doi:10.1016/j.tca.2012.07.004).

Test: xn = mol fraction of the nth substance listed
Settings: 101 kPa, Liquid; for mass density: Vibrating tube method; for viscosity: Vibrating wire viscometry; for speed of sound: ultrasonic interferometer

CCN(CC)CC.O=P(O)(O)O [triethylammonium dihydrogen phosphate] + CN1CCCC1=O
Settings	mass density, 308.15 K [kg/m3]	mass density, 313.15 K [kg/m3]	speed of sound, 308.15 K [m/s]	speed of sound, 313.15 K [m/s]	viscosity, 308.15 K [mPa·s]	viscosity, 313.15 K [mPa·s]
x1 = 0.0115	1023.39	1018.9	1539	1540	1.07	1.61
x1 = 0.0257	1028.04	1023.44	1544	1552	1.05	1.37
x1 = 0.0702	1039.93	1034.5	1577	1576	1.97	1.48
x1 = 0.0995	1046.49	1041.32	1600	1594	2.57	1.81
x1 = 0.1498	1057.16	1052.28	1636	1630	2.91	1.88
x1 = 0.2409	1072.56	1067.96	1689	1685	4.13	1.95
x1 = 0.282	1078.25	1074.06	1711	1708	4.19	2.5
x1 = 0.3482	1086.21	1081.89	1744	1737	5.05	2.99
x1 = 0.4709	1097.31	1093.3	1789	1785	6.42	4.42
x1 = 0.6161	1106.86	1103.08	1816	1808	11	8.18
x1 = 0.6975	1111.06	1107.89	1819	1810	15.83	11.52
x1 = 0.7906	1114.71	1111.88	1813	1804	23.02	17.2
x1 = 0.9135	1119.77	1117.73	1788	1772	35.92	28.3
x1 = 0.9579	1121.61	1119.92	1769	1758	42.41	33.32
x1 = 1	1123.71	1122.37	1757	1730	49.53	38.31
